# System: primary human chondrocytes (HC) exposed to IL1B
# Experiment: In vitro cell assay representative of osteoarthritis (transcriptomics, IPA Z-score of biological functions)
# Assay type: cell-based
# Conditions: chondrocytes with IL1B 5 ng/ml, vs pathological state control
# Description: Each time one of the batch solutions was added, fresh IL1B [5 ng/ml] was also added to the medium. The time schedule used for experimental setting is as follows: [table] At the end of described treatment periods, cells were washed with 100 μl PBS and lysed and collected in RLT buffer (Qiagen, 1053393) added with β-mercaptoethanol (Sigma, M3148) and DX reagent (Qiagen, 19088) for gene expression analysis experiments. Total RNA was extracted from cells lysates using an QIAsymphony RNA Kit (Qiagen,) with the QIAsymphony SP instrument (Qiagen). The quality and quantity of RNA was determined by A230, A260, A280 and A320 measurements on VarioskanTM LUX multimode microplate reader (Thermo ScientificTM). Integrity of RNA was checked using a 2100 expert_Eukaryote Total RNA Nano Kit (Agilent). Whole transcriptome expression profile was evaluated using a Human ClariomTM S Pico Assay HT (Applied Biosystems, ThermoFisher Scientific) on a GeneTitan MC Instrument (Applied Biosystems, ThermoFisher Scientific), following the manufacturer's instructions. […] Arrays were washed, stained and then scanned using the GeneTitan MC Instrument (Applied Biosystems, ThermoFisher Scientific) and CEL Intensity files were generated by Affymetrix GeneChip Command Console Software (AGCC, ThermoFisher Scientific). […] Ingenuity Pathways Analysis (IPA) (QIAGEN \Inc., https://www.qiagenbioinformatics.com/products/ingenuitypathway-analysis) was used, for each investigated batch to evaluate modulations of gene expression relevant for effects of interest. The patho-physiological features of state-of-the-art “Osteoarthritis condition” were considered with particular attention to the following areas involved: [table] This knowledge was used to interrogate IPA via the “IPA Bioprofiler” tool, using the following key words: osteoarthritis, arthropathy, formation of cartilage tissue, destruction of cartilage tissue, damage of cartilage, connective tissue disorder, inflammation of joint, immune cell trafficking, oxidative stress and hyaluronic acid. The use of “IPA Bioprofiler” allowed to identify clusters of expressed genes causally linked to each of the identified biological functions and the specific molecular pathway underpinning them. […] Modulation of expressed genes were shown in different intensities of blue (signifying down-modulation) or red (signifying up-modulation). The resulting expected calculated impact, based on the literature, on the related biofunctions was determined by “IPA Molecule Activity Predictor” tool (MAP) and resumed in a heatmap visualization. The colour and intensity thereof were transformed into numerical values.
# [1] = hallmark Protection from anatomical damage
smiles,measurement,setting,value
"CC1(C)O[C@@H]2C[C@H]3[C@@H]4CCC5=CC(=O)C=C[C@]5(C)[C@@]4(F)[C@@H](O)C[C@]3(C)[C@]2(C(=O)CO)O1 [Triamcinolone acetonide, Triamcinolone Acetonide]",Z-score values: Skeletal and muscular system development and function → articular dysfunction → joint space → Formation of cartilage tissue,hallmark Induction of proliferation,−0.31
same,"Z-score values: Organismal injury and abnormalities → joint inflammation and swelling, difficulty moving a joint → Osteoarthritis",[1],−0.15
same,Z-score values: Skeletal and muscular system function → difficulty moving a joint → Non-traumatic arthropathy,[1],−0.17
same,Z-score values: Inflammatory disease → inflammation and nociceptions → Inflammation of joint,hallmark Reduction of inflammation,−0.26
